Results published in the supplement of paper PMC10307832.

Experiments:
Test in all cases: relative viability (nuclei count vs DMSO), 5 days (fraction); higher = more cells survive
Cediranib + Decitabine = compound: COc1cc2c(Oc3ccc4[nH]c(C)cc4c3F)ncnc2cc1OCCCN1CCCC1 [Cediranib] + Nc1ncn([C@H]2C[C@H](O)[C@@H](CO)O2)c(=O)n1 [Decitabine] (partner 2 µM)
Method in brief: (§1)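 Values are medians from duplicate plates. Each reflects relative viability, defined as the nuclei count of treated wells over that of vehicle wells. Lung cancer cell lines in 1536-well plates were pin-tool dosed one day after seeding with one drug alone or with a fixed anchor-drug dose plus five library-drug doses (not always all listed) in √10 steps, then fixed, stained and imaged at 4× after 5 days.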

Cediranib + Olaparib = compound: COc1cc2c(Oc3ccc4[nH]c(C)cc4c3F)ncnc2cc1OCCCN1CCCC1 [Cediranib] + O=C(c1cc(Cc2n[nH]c(=O)c3ccccc23)ccc1F)N1CCN(C(=O)C2CC2)CC1 [Olaparib] (partner 8 µM)
Method in brief: as §1

Decitabine + Tozasertib = compound: Nc1ncn([C@H]2C[C@H](O)[C@@H](CO)O2)c(=O)n1 [Decitabine] + Cc1cc(Nc2cc(N3CCN(C)CC3)nc(Sc3ccc(NC(=O)C4CC4)cc3)n2)n[nH]1 [Tozasertib] (partner 0.1 µM)
Method in brief: as §1

Halofuginone + Dasatinib = compound: O=C(C[C@H]1NCCC[C@@H]1O)Cn1cnc2cc(Br)c(Cl)cc2c1=O (racemic) [Halofuginone] + Cc1nc(Nc2ncc(C(=O)Nc3c(C)cccc3Cl)s2)cc(N2CCN(CCO)CC2)n1 [Dasatinib] (partner 0.075 µM)
Method in brief: as §1

Row | Cell Line | relative viability (Cediranib + Decitabine; first compound 0.04 µM) | relative viability (Cediranib + Decitabine; first compound 0.4 µM) | relative viability (Cediranib + Decitabine; first compound 1.265 µM) | relative viability (Cediranib + Decitabine; first compound 4 µM) | relative viability (Cediranib + Olaparib; first compound 0.04 µM) | relative viability (Cediranib + Olaparib; first compound 0.1265 µM) | relative viability (Cediranib + Olaparib; first compound 0.4 µM) | relative viability (Cediranib + Olaparib; first compound 1.265 µM) | relative viability (Cediranib + Olaparib; first compound 4 µM) | relative viability (Decitabine + Tozasertib; first compound 0.1265 µM) | relative viability (Decitabine + Tozasertib; first compound 0.4 µM) | relative viability (Decitabine + Tozasertib; first compound 1.265 µM) | relative viability (Decitabine + Tozasertib; first compound 4 µM) | relative viability (Halofuginone + Dasatinib; first compound 0.001 µM) | relative viability (Halofuginone + Dasatinib; first compound 0.003162 µM) | relative viability (Halofuginone + Dasatinib; first compound 0.01 µM) | relative viability (Halofuginone + Dasatinib; first compound 0.03162 µM) | relative viability (Halofuginone + Dasatinib; first compound 0.1 µM) | relative viability (Cediranib + Decitabine; first compound 0.1265 µM) | relative viability (Decitabine + Tozasertib; first compound 0.04 µM)
1 | EPLC-272H | 0.352 | 0.338 | 0.406 | 0.354 | 0.896 | 0.831 | 0.8 | 0.964 | 0.688 | 0.307 | 0.0586 | 0.26 | 0.157 | 0.366 | 0.427 | 0.43 | 0.37 | 0.274 | – | –
2 | H3255 | 0.534 | 0.601 | – | 0.487 | 0.524 | 0.503 | 0.564 | 0.643 | 0.542 | 0.633 | 0.524 | 0.506 | 0.431 | 0.429 | 0.317 | 0.357 | 0.328 | 0.334 | – | –
3 | HARA | 0.595 | 0.517 | 0.782 | 0.582 | 0.626 | 1.22 | 0.675 | 1.01 | 0.692 | 0.0855 | 0.0556 | 0.078 | 0.0747 | 0.273 | 0.225 | 0.304 | 0.276 | 0.191 | 0.593 | 0.0975
4 | HCC-15 | 0.645 | 0.575 | 0.688 | 0.644 | 0.706 | – | 0.705 | 0.759 | 0.759 | 0.388 | 0.345 | 0.213 | 0.175 | 0.645 | 0.677 | 0.572 | 0.593 | 0.322 | 0.433 | 0.308
5 | HCC-78 | 0.74 | 0.747 | 0.605 | 0.771 | 0.963 | 1.01 | 0.83 | 0.96 | 1.04 | 0.488 | 0.369 | 0.38 | 0.291 | 0.44 | 0.364 | 0.357 | 0.4 | 0.503 | 0.64 | 0.443
6 | HCC-366 | 0.379 | 0.305 | 0.364 | 0.338 | 0.413 | 0.354 | 0.392 | 0.362 | 0.395 | 0.104 | 0.0711 | 0.0439 | 0.0387 | 0.709 | 0.804 | 0.684 | 0.66 | 0.414 | 0.318 | 0.0988
7 | HCC-827 | 0.314 | 0.358 | 0.297 | 0.311 | 0.466 | 0.62 | 0.661 | 0.617 | 0.646 | 0.265 | 0.219 | 0.221 | 0.224 | 0.249 | 0.415 | 0.31 | 0.493 | 0.359 | 0.23 | 0.253
8 | HOP-62 | 0.255 | 0.215 | 0.207 | 0.203 | 0.385 | – | 0.425 | 0.503 | 0.688 | 0.229 | 0.141 | 0.108 | 0.104 | 0.641 | 0.75 | 0.737 | 0.545 | 0.369 | 0.246 | 0.226
9 | LC-2-ad | 0.803 | 0.784 | 0.744 | 0.822 | 0.737 | 0.689 | 0.664 | 0.732 | 0.839 | 0.419 | 0.299 | 0.334 | 0.371 | 0.711 | 0.517 | 0.511 | 0.565 | 0.209 | 0.779 | 0.479
